Experiments:
Orai1/STIM1 = molecular target: T1, Orai1/STIM1 (Homo sapiens, UniProt Q96D31); assay: Fluorescence-based assay of store-operated calcium entry in Orai1/STIM1 stable cells; type: cell-based; details: HEK-293 cells stably expressing human STIM1 and Orai1; inhibition of Peak-Basal fluorescence signal after calcium addition; read-out: Orai1/STIM1 (IC50, μmol)
T1 construct: c-myc (C); expressed in transfected cells; host or cells: HEK-293 cells stably expressing recombinant human STIM1 and Orai1
T1 sequence (Q96D31 whole entry): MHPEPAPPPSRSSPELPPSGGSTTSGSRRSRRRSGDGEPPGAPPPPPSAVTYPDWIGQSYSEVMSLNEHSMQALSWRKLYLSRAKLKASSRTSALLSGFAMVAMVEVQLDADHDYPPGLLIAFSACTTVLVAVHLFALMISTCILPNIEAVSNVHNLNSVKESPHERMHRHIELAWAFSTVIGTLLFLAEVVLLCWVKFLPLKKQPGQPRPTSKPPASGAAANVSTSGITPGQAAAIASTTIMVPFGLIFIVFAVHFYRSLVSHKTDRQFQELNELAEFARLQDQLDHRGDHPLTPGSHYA
Excerpt: (§1) Fluorescence-based assays are used for screening the compounds described herein, such as compounds of Formulas (I), (IA), (II), (IIA), (III), (IIIA), (IV), (IVA), (V), (VA), (VI), (VIA), (VII), (VIIA), (VIII), (VIIIA), (IX), (IXA), (X), (XI), (XIA), (XII), or (XIIA) which modulate intracellular calcium.
A. Fluorescence-Based Assay of Store-Operated Calcium Entry in Orai1/STIM1 Stable Cells.
Cells stably expressing recombinant human STIM1 and Orai1 are generated by transfecting a human Orai1 expression plasmid (pcDNA3.1-Orai1-cmyc) into HEK-293 cells stably overexpressing human STIM1 (Roos et al. 2005 JCB 169(3): 435-445). Colonies of cells stably expressing both STIM1 and Orai1 proteins are selected and then subcloned by limiting dilution. Cells were cultured at 37° C./6% CO2 in complete medium with 10% FBS and appropriate selection markers.
The day prior to performing the assay Orai1/STIM1 stable cells are plated in 50 μL of complete medium at 90-95% confluence in a 384 well plate. Cells are grown at 37° C./6% CO2 overnight. On the day of the assay, 1.5 μM fluo-4-AM (Invitrogen) in complete medium is added to the cells, which are then incubated for 1 hour at RT. Cells are washed once in Ca^2+-free HBSS (Hank's buffered saline solution) and 35 μl of Ca^2+-free HBSS is added to each well. Test compounds are added to wells in a 10 μL Ca^2+-free HBSS solution, prepared at 4.5× the desired final concentration, and incubated for 30 minutes at RT. The initial baseline fluorescence signal is then measured with a FLIPR^384 (Molecular Devices) plate reader. Calcium entry is initiated by adding 5 μl of 10×CaCl2 (10 mM) in HBSS, and changes in cellular fluorescence are measured with the FLIPR^384 plate reader. In each well, the magnitude of the fluorescence signal as a result of calcium entry into the cell is determined by calculating the difference between the peak fluorescence signal measured after calcium addition and the initial baseline fluorescence signal (designated Peak-Basal). IC50 values are typically calculated as the concentration that inhibited 50% of the Peak-Basal signal.

RBL-2H3 cells = assay: Fluorescence-based assay of store-operated calcium entry in RBL-2H3 cells; type: cell-based, rat; details: Rattus norvegicus, thapsigargin, inhibition of Upslope of fluorescence after calcium addition, read-out: RBL-2H3 (IC50, μmol)
Method: as §1
B. Fluorescence-Based Assay of Store-Operated Calcium Entry in RBL-2H3 Cells.
RBL-2H3 cells are obtained from ATCC and maintained in complete medium with 10% FBS at 37° C./6% CO2.
The day prior to performing the assay, RBL-2H3 cells are plated in 50 μL of complete medium in a 384 well plate. Cells are grown at 37° C./6% CO2 overnight and grow to 50-60% confluence by the next day. On the assay day, 1.5 µM Fluo-4-AM dye (Invitrogen) in complete medium is added and incubated for 1 hour at RT. Cells are washed twice in Ca^2+-free HBSS buffer and 35 μL Ca^2+-free HBSS buffer is added to each well. 10 μL of a test compound prepared in a Ca^2+-free HBSS solution at 4.5× of the desired concentration is added to a well and incubated for 5 minutes at RT. 10 μL of thapsigargin prepared in a Ca^2+-free HBSS solution at 5.5× of the desired concentration (5.5 uM) is added to each well and incubated for an additional 25 minutes. The initial baseline fluorescence signal is measured with a FLIPR^384 (Molecular Devices) plate reader. 5 μL of 12× calcium in HBSS (12 mM) is added and changes in cellular fluorescence are measured with the FLIPR^384 plate reader. In each well, the change in the fluorescent signal as a function of time due to calcium entry into the cell is determined by calculating the difference between the fluorescent signal measured 7 seconds after calcium addition and the initial baseline fluorescence signal at time zero (t=0). This parameter is designated Upslope. The IC50 value is calculated as the concentration at which 50% of the Upslope is inhibited.

Fc1cc(F)c(CNc2ccc(Oc3ccccc3C(F)(F)F)cn2)c(F)c1 [Compound 134]
IC50 (Orai1/STIM1): < 600 nM | IC50 (RBL-2H3 cells): < 600 nM

Fc1cccc(F)c1CNc1ccc(Oc2ccccc2C(F)(F)F)cn1 [Compound 135]
IC50 (Orai1/STIM1): < 600 nM | IC50 (RBL-2H3 cells): < 600 nM

Cn1nc(C(F)(F)F)cc1-c1ccc(NCc2ccccc2F)nc1N [Compound 143, N^2-(2-fluorobenzyl)-5-(1-methyl-3-(trifluoromethyl)-1H-pyrazol-5-yl)pyridine-2,6-diamine]
IC50 (Orai1/STIM1): < 600 nM | IC50 (RBL-2H3 cells): < 600 nM
